Results as given in ChEMBL document CHEMBL1201862, “PubChem BioAssay data set” (2004).
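Step 1: Grow cells in 96-well plates. Step 2: Expose to compound for 48 hours at 5 concentrations. Step 3: Interpolate endpoints linearly; if unreached, use highest concentration. GI50 is the concentration that inhibits growth by half.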 Active and inactive are the calls of the source. No stated cut-off is given here; in the data, active = GI50 up to about 1.1 µM and inactive = higher.

What was measured:
Experiment in all cases: DTP human tumour cell line panel, 48 h
MCF7 = tested on: MCF7
EKVX = tested on: EKVX
SN12C = tested on: SN12C
SK-MEL-2 = tested on: SK-MEL-2
SNB-75 = tested on: SNB-75
SK-MEL-5 = tested on: SK-MEL-5
RPMI-8226 = tested on: RPMI-8226
NCI/ADR-RES = tested on: NCI/ADR-RES
BT-549 = tested on: BT-549
M14 = tested on: M14
SK-OV-3 = tested on: SK-OV-3
786-0 = tested on: 786-0
UACC-257 = tested on: UACC-257
K562 = tested on: K562
SR = tested on: SR
NCI-H522 = tested on: NCI-H522
COLO 205 = tested on: COLO 205
UO-31 = tested on: UO-31
ACHN = tested on: ACHN
SK-MEL-28 = tested on: SK-MEL-28
DU-145 = tested on: DU-145
OVCAR-5 = tested on: OVCAR-5
HCT-116 = tested on: HCT-116
RXF 393 = tested on: RXF 393
HCT-15 = tested on: HCT-15
SF-539 = tested on: SF-539
MOLT-4 = tested on: MOLT-4
HT-29 = tested on: HT-29
A549 = tested on: A549
CCRF-CEM = tested on: CCRF-CEM
UACC-62 = tested on: UACC-62
LOX IMVI = tested on: LOX IMVI
CAKI-1 = tested on: CAKI-1
MDA-N = tested on: MDA-N
PC-3 = tested on: PC-3
OVCAR-3 = tested on: OVCAR-3
U-251 = tested on: U-251
NCI-H226 = tested on: NCI-H226
Hs-578T = tested on: Hs-578T
HOP-62 = tested on: HOP-62
MDA-MB-435 = tested on: MDA-MB-435
HL-60 = tested on: HL-60
SNB-19 = tested on: SNB-19
MDA-MB-231 = tested on: MDA-MB-231
NCI-H460 = tested on: NCI-H460
SW-620 = tested on: SW-620
OVCAR-4 = tested on: OVCAR-4
SF-295 = tested on: SF-295
NCI-H23 = tested on: NCI-H23
Malme-3M = tested on: Malme-3M
OVCAR-8 = tested on: OVCAR-8
IGROV-1 = tested on: IGROV-1
SF-268 = tested on: SF-268
TK-10 = tested on: TK-10
KM12 = tested on: KM12
HCC 2998 = tested on: HCC 2998
HOP-92 = tested on: HOP-92

Structure (SMILES): CN(c1ccc(Cl)cc1)S(=O)(=O)c1cccc([N+](=O)[O-])c1
- GI50 (MCF7): 56.1 µM (inactive)
- GI50 (EKVX): 66.5 µM (inactive)
- GI50 (SN12C): > 100 µM (inactive)
- GI50 (SK-MEL-2): 44.2 µM (inactive)
- GI50 (SNB-75): 56.5 µM (inactive)
- GI50 (SK-MEL-5): 27.4 µM (inactive)
- GI50 (RPMI-8226): 39.1 µM (inactive)
- GI50 (NCI/ADR-RES): 36.7 µM (inactive)
- GI50 (BT-549): 32.7 µM (inactive)
- GI50 (M14): 43.4 µM (inactive)
- GI50 (SK-OV-3): > 100 µM (inactive)
- GI50 (786-0): > 100 µM (inactive)
- GI50 (UACC-257): > 100 µM (inactive)
- GI50 (K562): 26.9 µM (inactive)
- GI50 (SR): 52.6 µM (inactive)
- GI50 (NCI-H522): 65.5 µM (inactive)
- GI50 (COLO 205): 65 µM (inactive)
- GI50 (UO-31): 39.9 µM (inactive)
- GI50 (ACHN): 99.1 µM (inactive)
- GI50 (SK-MEL-28): 95.9 µM (inactive)
- GI50 (DU-145): > 100 µM (inactive)
- GI50 (OVCAR-5): 87.3 µM (inactive)
- GI50 (HCT-116): 34 µM (inactive)
- GI50 (RXF 393): 45.4 µM (inactive)
- GI50 (HCT-15): 47.1 µM
- GI50 (SF-539): 66.4 µM (inactive)
- GI50 (MOLT-4): 17.2 µM (inactive)
- GI50 (HT-29): 22.5 µM (inactive)
- GI50 (A549): > 100 µM (inactive)
- GI50 (CCRF-CEM): 27.5 µM (inactive)
- GI50 (UACC-62): 39.4 µM (inactive)
- GI50 (LOX IMVI): 41.9 µM (inactive)
- GI50 (CAKI-1): 64.6 µM (inactive)
- GI50 (MDA-N): 67.9 µM (inactive)
- GI50 (PC-3): 14.3 µM (inactive)
- GI50 (OVCAR-3): 55.3 µM (inactive)
- GI50 (U-251): 64.4 µM (inactive)
- GI50 (NCI-H226): 53.8 µM (inactive)
- GI50 (Hs-578T): > 100 µM (inactive)
- GI50 (HOP-62): 89.3 µM (inactive)
- GI50 (MDA-MB-435): 34.8 µM (inactive)
- GI50 (HL-60): > 10 µM (inactive)
- GI50 (SNB-19): > 100 µM (inactive)
- GI50 (MDA-MB-231): 44 µM (inactive)
- GI50 (NCI-H460): 42.3 µM (inactive)
- GI50 (SW-620): 70.5 µM (inactive)
- GI50 (OVCAR-4): > 100 µM (inactive)
- GI50 (SF-295): > 100 µM (inactive)
- GI50 (NCI-H23): 34.7 µM (inactive)
- GI50 (Malme-3M): 69.2 µM (inactive)
- GI50 (OVCAR-8): > 100 µM (inactive)
- GI50 (IGROV-1): > 100 µM (inactive)
- GI50 (SF-268): 66.7 µM (inactive)
- GI50 (TK-10): > 100 µM (inactive)
- GI50 (KM12): 52.6 µM (inactive)
- GI50 (HCC 2998): 79.1 µM (inactive)

Structure (SMILES): Clc1cc(N/N=C(/c2ccccc2)c2ncccn2)ncn1
- GI50 (MCF7): 14.8 µM (inactive)
- GI50 (EKVX): 17 µM (inactive)
- GI50 (SN12C): 29.2 µM (inactive)
- GI50 (SK-MEL-2): 32.7 µM (inactive)
- GI50 (SNB-75): 26.1 µM (inactive)
- GI50 (SK-MEL-5): 25.8 µM (inactive)
- GI50 (RPMI-8226): 16.5 µM (inactive)
- GI50 (NCI/ADR-RES): 20.1 µM (inactive)
- GI50 (BT-549): 38.5 µM (inactive)
- GI50 (M14): 29 µM (inactive)
- GI50 (SK-OV-3): 19.1 µM (inactive)
- GI50 (786-0): 21.7 µM (inactive)
- GI50 (UACC-257): 20.9 µM (inactive)
- GI50 (K562): 9.1 µM (inactive)
- GI50 (SR): 30.2 µM (inactive)
- GI50 (NCI-H522): 2.56 µM (inactive)
- GI50 (COLO 205): 4.29 µM (inactive)
- GI50 (UO-31): 19.5 µM (inactive)
- GI50 (ACHN): 4.78 µM (inactive)
- GI50 (SK-MEL-28): 36.9 µM (inactive)
- GI50 (DU-145): 39.2 µM (inactive)
- GI50 (OVCAR-5): 85.5 µM (inactive)
- GI50 (HCT-116): 7.26 µM (inactive)
- GI50 (RXF 393): 19.8 µM (inactive)
- GI50 (HCT-15): 17.9 µM
- GI50 (SF-539): 21.9 µM (inactive)
- GI50 (MOLT-4): 5.87 µM (inactive)
- GI50 (HT-29): 2.58 µM (inactive)
- GI50 (A549): 26 µM (inactive)
- GI50 (CCRF-CEM): 4.53 µM (inactive)
- GI50 (UACC-62): 32.2 µM (inactive)
- GI50 (CAKI-1): 7.96 µM (inactive)
- GI50 (MDA-N): 62.8 µM (inactive)
- GI50 (PC-3): 32.7 µM (inactive)
- GI50 (OVCAR-3): 20.2 µM (inactive)
- GI50 (U-251): 31.8 µM (inactive)
- GI50 (NCI-H226): 56.4 µM (inactive)
- GI50 (Hs-578T): 24.5 µM (inactive)
- GI50 (HOP-62): 26.8 µM (inactive)
- GI50 (MDA-MB-435): 48.3 µM (inactive)
- GI50 (SNB-19): 60.7 µM (inactive)
- GI50 (MDA-MB-231): 20.2 µM (inactive)
- GI50 (NCI-H460): 19.3 µM (inactive)
- GI50 (HOP-92): 14.7 µM (inactive)
- GI50 (SW-620): 7.18 µM (inactive)
- GI50 (OVCAR-4): 22.1 µM (inactive)
- GI50 (SF-295): 24.6 µM (inactive)
- GI50 (NCI-H23): 21.4 µM (inactive)
- GI50 (OVCAR-8): 16.5 µM (inactive)
- GI50 (IGROV-1): 17.5 µM (inactive)
- GI50 (SF-268): 34 µM (inactive)
- GI50 (KM12): 43 µM (inactive)
- GI50 (HCC 2998): 70.3 µM (inactive)
